Legend:
[1] = target: bovine carbonic anhydrase II (bCA-II) (Bos taurus, UniProt P00921); assay: Carbonic anhydrase II (CA-II) inhibition, spectrophotometric p-nitrophenyl acetate assay; format: biochemical; settings: pH 7.4, 25 °C; for inhibition at 500 µM: pH 7.4, bCA-II, compound at 500 µM, read-out: % Inhibtion (500 µM); for IC50: bCA-II, substrate p-NPA, triplicate
Procedure: Evaluation of carbonic anhydrase inhibition was done by spectrophotometric technique as narrated by Pocker and Meany with little alteration[69],[70] as described previously. The process was carried out in HEPES-Tris buffer (20 mM) having pH 7.4 at 25 °C. Each inhibitory well contained 20 µL of CA-II enzyme solution (0.1 mg/mL HEPES-Tris buffer), 140 µL of HEPES-Tris buffer solution, 20 µL of the compound to be analyzed in HPLC grade DMSO. At 25 °C, the solution mixture was pre-incubated for 15 min. Substrate p-nitrophenyl acetate (p-NPA) (0.7 mM) was prepared in HPLC grade methanol and the reaction was initiated by the addition of 20 µL to a well in a 96-well-plate. The quantity of product formed was measured at 400 nm continually at 1 min gap for 30 min in a 96-well-plate using xMARK microplate spectrophotometer, Bio-Rad (USA). The inhibition activity of the controlled compound was considered as 100%. All the experiments were performed in triplicates of each used concentration, and the conclusions are expressed as a mean of the triplicate.
All thiosemicarbazones derivatives (3a–q) were tested against bovine carbonic anhydrase II (bCA-II).

Chain of bovine carbonic anhydrase II (bCA-II) (P00921 whole entry): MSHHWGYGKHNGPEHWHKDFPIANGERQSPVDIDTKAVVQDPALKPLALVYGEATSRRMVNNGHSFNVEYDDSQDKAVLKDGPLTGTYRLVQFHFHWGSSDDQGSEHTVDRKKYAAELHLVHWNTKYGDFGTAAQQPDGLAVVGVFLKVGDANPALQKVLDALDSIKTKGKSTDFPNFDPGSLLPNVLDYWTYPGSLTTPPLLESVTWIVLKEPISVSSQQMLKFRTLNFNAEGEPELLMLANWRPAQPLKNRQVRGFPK

Row | Compound | inhibition at 500 µM [1] [%] | melting point [°C] | IC50 [1] [µM]
1 | CN(C)c1ccc(/C=C/C=N/NC(=S)Nc2cccc(F)c2)cc1 [3j, (E)-2-((E)-3-(4-(Dimethylamino)phenyl)allylidene)-N-(3-fluorophenyl)hydrazine-1-carbothioamide] | < 50 | 218 | 
2 | CN(C)c1ccc(/C=C/C=N/NC(=S)Nc2ccc(F)cc2F)cc1 [3h, (E)-N-(2,4-Difluorophenyl)-2-((E)-3-(4-(dimethylamino)phenyl)allylidene)hydrazine-1-carbothioamide] | 77.1 | 202 | 13.4 ± 0.52
3 | Cc1ccc(NC(=S)N/N=C/C=C/c2ccc(N(C)C)cc2)c(C)c1 [3l, (E)-2-((E)-3-(4-(Dimethylamino)phenyl)allylidene)-N-(2,4-dimethylphenyl)hydrazine-1-carbothioamide] | 78.2 | 232 | 18.3 ± 1.32
4 | CN(C)c1ccc(/C=C/C=N/NC(=S)NC2CCCCC2)cc1 [3q, (E)-N-Cyclohexyl-2-((E)-3-(4-(dimethylamino)phenyl)allylidene)hydrazine-1-carbothioamide] |  | 252 | 
5 | CN(C)c1ccc(/C=C/C=N/NC(=S)NCc2ccc(F)cc2)cc1 [3n] | 63.2 | 192 | 10.3 ± 0.62
6 | COc1cccc(NC(=S)N/N=C/C=C/c2ccc(N(C)C)cc2)c1 [3f, (E)-2-((E)-3-(4-(Dimethylamino)phenyl)allylidene)-N-(3-methoxyphenyl)hydrazine-1-carbothioamide] | 89.7 | 198 | 17.9 ± 1.23
7 | CN(C)c1ccc(/C=C/C=N/NC(=S)Nc2ccccc2F)cc1 [3e, (E)-2-((E)-3-(4-(Dimethylamino)phenyl)allylidene)-N-(2-fluorophenyl)hydrazine-1-carbothioamide] | 93.4 | 189 | 19.7 ± 0.23
8 | CN(C)c1ccc(/C=C/C=N/NC(=S)Nc2cccc(C#N)c2)cc1 [3o, (E)-N-(3-Cyanophenyl)-2-((E)-3-(4-(dimethylamino)phenyl)allylidene)hydrazine-1-carbothioamide] | 81.8 | 215 | 21.8 ± 0.85
9 | CN(C)c1ccc(/C=C/C=N/NC(=S)NCCc2ccccc2)cc1 [3c] |  | 180 | 
10 | CN(C)c1ccc(/C=C/C=N/NC(=S)NCc2ccc(Cl)cc2)cc1 [3k] |  | 196 | 
11 | Cc1cccc(C)c1NC(=S)N/N=C/C=C/c1ccc(N(C)C)cc1 [3b, (E)-2-((E)-3-(4-(Dimethylamino)phenyl)allylidene)-N-(2,6-dimethylphenyl)hydrazine-1-carbothioamide] | 78.1 | 239 | 40.4 ± 0.89
12 | CN(C)c1ccc(/C=C/C=N/NC(=S)Nc2cccc(Cl)c2Cl)cc1 [3d, (E)-N-(2,3-Dichlorophenyl)-2-((E)-3-(4-(dimethylamino)phenyl)allylidene)hydrazine-1-carbothioamide] | 82.2 | 192 | 36.6 ± 0.15

Further lines, results first:

Row | inhibition at 500 µM [1] [%] | melting point [°C] | IC50 [1] [µM] | Compound
13 |  | 218 |  | CN(C)c1ccc(/C=C/C=N/NC(=S)Nc2ccccc2)cc1 [3p, (E)-2-((E)-3-(4-(Dimethylamino)phenyl)allylidene)-N-phenylhydrazine-1-carbothioamide]
14 | 93 | 240 | 12.1 ± 1.01 | CN(C)c1ccc(/C=C/C=N/NC(=S)Nc2ccc(Br)cc2)cc1 [3g, (E)-N-(4-Bromophenyl)-2-((E)-3-(4-(dimethylamino)phenyl)allylidene)hydrazine-1-carbothioamide]
15 | 84.9 | 220 | 33.6 ± 0.42 | CC(C)c1ccc(NC(=S)N/N=C/C=C/c2ccc(N(C)C)cc2)cc1 [3i, (E)-2-((E)-3-(4-(Dimethylamino)phenyl)allylidene)-N-(4-isopropylphenyl)hydrazine-1-carbothioamide]
16 | 82 | 232 | 46.6 ± 0.62 | Cc1ccc(NC(=S)N/N=C/C=C/c2ccc(N(C)C)cc2)cc1 [3a, (E)-2-((E)-3-(4-(Dimethylamino)phenyl)allylidene)-N-(p-tolyl)hydrazine-1-carbothioamide]
17 | 79.9 | 238 | 14.7 ± 1.42 | CN(C)c1ccc(/C=C/C=N/NC(=S)Nc2ccc(Cl)cc2)cc1 [3m, (E)-N-(4-Chlorophenyl)-2-((E)-3-(4-(dimethylamino)phenyl)allylidene)hydrazine-1-carbothioamide]

Reference: paper PMC9515202, “Bis-pharmacophore of cinnamaldehyde-clubbed thiosemicarbazones as potent carbonic anhydrase-II inhibitors” (Scientific Reports, 2022)
